For data set [1], the target named is T1, MDR1 (P-glycoprotein, ABCB1) (Homo sapiens, UniProt P08183). As to the kind of experiment: Inhibition of human recombinant MDR1 expressed in mouse L5178Y cells assessed as inhibition of rhodamine-123 efflux at 10^-5 M preincubated for 10 mins measured after 20 mins by FACS analysis. Format: cell-based. The note with it: mouse L5178Y cells expressing human recombinant MDR1, probe rhodamine-123.

Data set [2] concerns the target T1, MDR1 (P-glycoprotein, ABCB1). The experiment in a line: in vitro.
Description: Inhibition of human recombinant MDR1 expressed in mouse L5178Y cells assessed as inhibition of rhodamine-123 efflux at 10^-4 M preincubated for 10 mins measured after 20 mins by FACS analysis
Data set [3] addresses T2, Quinolone resistance protein NorA (Staphylococcus aureus) (UniProt P0A0J7).
T2 sequence (whole entry): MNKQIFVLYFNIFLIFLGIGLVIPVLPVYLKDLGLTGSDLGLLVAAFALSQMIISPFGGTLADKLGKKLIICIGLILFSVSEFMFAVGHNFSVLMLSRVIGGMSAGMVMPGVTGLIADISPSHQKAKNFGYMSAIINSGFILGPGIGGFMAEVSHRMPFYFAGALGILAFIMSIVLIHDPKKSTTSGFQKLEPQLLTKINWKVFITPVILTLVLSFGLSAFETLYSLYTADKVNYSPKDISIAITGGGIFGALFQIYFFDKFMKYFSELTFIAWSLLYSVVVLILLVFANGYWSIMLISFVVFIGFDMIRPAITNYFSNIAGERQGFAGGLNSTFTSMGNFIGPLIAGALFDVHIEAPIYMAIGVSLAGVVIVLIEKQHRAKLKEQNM
The note with it: SA-1199B, at 50 µM.
Description: Inhibition of norA-mediated ethidium bromide efflux in Staphylococcus aureus SA-1199B harboring grlA A116E mutant at 50 uM after 5 mins by fluorometric analysis

In a further data set the test system is Staphylococcus aureus. The experiment in a line: microbe, parasite or virus in culture. Format: functional. The note with it: SA-1199B.
Setting [4] is: mouse L5178Y cells expressing human recombinant MDR1, probe rhodamine-123.

Converted amounts (≈) assume the structure as drawn.

Regarding `CC[C@H]1CCc2nc(SCc3ccc(C(=O)O)cc3)c(C#N)c(C(F)(F)F)c2C1`, the inhibition at 20 min, 10 µM in data set [1] stood at 0.6%. Regarding `Cn1cccc1-c1nc2cc(NC(=O)c3ccccc3)ccc2[nH]1`, in data set [2] (setting [4]), the inhibition at 20 min, 100 µM was found to be 1.6%. The same measure, in the same setting: in the case of `CCOC(=O)c1cn(C2CC2)c2cc(N3CCC4=C(C3)/C(=N/OC)C(C)CS4)c(N)cc2c1=O` (configuration not stated) it was 16.8%; in that of `CCOC(=O)c1cn(C2CC2)c2cc(N3CCC4=C(C3)/C(=N/O)C(C)CS4)c(N)cc2c1=O` (configuration not stated), 40.6%.

`C=CCc1ccccc1OCC(O)CNC(C)C` (configuration not stated) [ALPRENOLOL]: the inhibition at 20 min, 100 µM in data set [2] (setting [4]) worked out at 5%.

In data set [3], `CCOc1cc(CC(=O)N[C@@H](CC(C)C)c2ccccc2N2CCCCC2)ccc1C(=O)O` [REPAGLINIDE] gave an inhibition of 14%. For the same molecule, in data set [2] (setting [4]), the inhibition at 20 min, 100 µM was found to be 35%.

Take `CCOC(=O)C1=C(COCCN)NC(C)=C(C(=O)OC)C1c1ccccc1Cl` (configuration not stated) [AMLODIPINE]: the inhibition at 20 min, 10 µM in data set [1] was found to be 52.8%. Further, the inhibition in data set [3] was 60.6%. `C=C[C@H]1CN2CC[C@H]1C[C@@H]2[C@@H](O)c1ccnc2ccc(OC)cc12` showed an inhibition in data set [3] of 31.5%. `CN(C)C(=O)C(CCN1CCC(O)(c2ccc(Cl)cc2)CC1)(c1ccccc1)c1ccccc1` [LOPERAMIDE]: in data set [1], the inhibition at 20 min, 10 µM was 4.5%. In addition, the MIC in the data set on Staphylococcus aureus was more than 100 µg/mL. Also, in data set [3], the inhibition was 77.7%. As for `COc1ccc(CCN2CCC(Nc3nc4ccccc4n3Cc3ccc(F)cc3)CC2)cc1` [ASTEMIZOLE], in data set [1], the inhibition at 20 min, 10 µM was found to be 12.8%. In the data set with Staphylococcus aureus, this molecule yielded an MIC of 100 µg/mL (≈ 218 µM). Moreover, the inhibition in data set [3] was 80.6%.

Consider `C[C@@H](NCc1cccc(OCc2ccccc2)c1)[C@@H](O)c1ccccc1`, for which the inhibition at 20 min, 10 µM in data set [1] is 7.8%. As to `CC[C@H](C)N1C(=O)S/C(=C/c2ccc(-c3cc(C(=O)O)ccc3Cl)o2)C1=O`, the inhibition at 20 min, 10 µM in data set [1] amounted to 0.7%. `Cc1ccc(S(=O)(=O)Nc2ccc3nc(-c4cccn4C)[nH]c3c2)cc1`: the inhibition at 20 min, 100 µM in data set [2] (setting [4]) amounted to 4.3%. Same read-out and setting: under `O=C1NC(=O)/C(=C/c2ccc(-c3cc(C(=O)O)ccc3Cl)o2)S1` stands 2.6%; under `CCC(C)N1C(=O)S/C(=C\c2ccc(N3CCCC3)o2)C1=O` (configuration not stated), 11.3%. Still for that read-out and setting: under `COc1ccc(C2=Nc3ccccc3SC2)cc1OC` stands 44.1%; under `COc1cccc(CNC(C)C(O)c2ccccc2)c1` (configuration not stated), 2.1%.

As for `CCCOc1ccc(-c2cc(=O)c3ccccc3n2C)cc1`, the inhibition at 20 min, 100 µM in data set [2] (setting [4]) was 1.9%. On to `N#Cc1c(SCc2ccc(Cl)nc2)nc2c(c1C(F)(F)F)CCCC2`, for which, in data set [2] (setting [4]), the inhibition at 20 min, 100 µM came out at 20.4%.

For `CCN(CC)CCOc1ccc(-c2cc(=O)c3ccccc3n2C)cc1`, the inhibition at 20 min, 10 µM in data set [1] was determined as 2.6%. For `COc1cc(C2=Nc3ccccc3SC2)cc(OC)c1OC`, the inhibition at 20 min, 100 µM in data set [2] (setting [4]) amounted to 64.7%. For `N#Cc1c(C(F)(F)F)cc(Cc2ccccc2)nc1SCc1ccc(C(=O)O)cc1`, the inhibition at 20 min, 100 µM in data set [2] (setting [4]) came out at 2.6%. In the data set on Staphylococcus aureus, `CC(C)(C)c1ccc(C(=O)CCCN2CCC(OC(c3ccccc3)c3ccccc3)CC2)cc1` [EBASTINE] displayed an MIC of more than 100 µg/mL. Besides, the inhibition in data set [3] worked out at 88.3%. With `CCC(C)N1C(=O)S/C(=C\c2ccc(-c3cc(C(=O)O)ccc3Cl)o2)C1=O` (configuration not stated), the inhibition at 20 min, 10 µM in data set [1] stood at 1.7%. In the data set with Staphylococcus aureus, `O=C1NCCN1CCN1CCC(c2cn(-c3ccc(F)cc3)c3ccc(Cl)cc23)CC1` [SERTINDOLE] displayed an MIC of 25 µg/mL (≈ 56.7 µM). In data set [3], this molecule yielded an inhibition of 81.8%. Besides, the inhibition at 20 min, 100 µM in data set [2] (setting [4]) was 74%. The corresponding values for `O=C1CCc2ccc(OCCCCN3CCN(c4cccc(Cl)c4Cl)CC3)cc2N1` [ARIPIPRAZOLE] are more than 100 µg/mL, 92.3% and 99%.

Molecule `CCN(CC)CCCN(c1ccccc1)C1Cc2ccccc2C1` [APRINDINE] yielded an inhibition in data set [3] of 51.6%. Further, the inhibition at 20 min, 100 µM in data set [2] (setting [4]) stood at 16%.

Turning to `O=C1Cc2cc(CCN3CCN(c4nsc5ccccc45)CC3)c(Cl)cc2N1` [ZIPRASIDONE], the MIC against Staphylococcus aureus is more than 100 µg/mL. Also, in data set [3], the inhibition was 86.6%. Further, the inhibition at 20 min, 100 µM in data set [2] (setting [4]) worked out at 19%. In data set [2] (l5178y), `C=C[C@H]1C[N@@]2CC[C@H]1C[C@@H]2[C@@H](O)c1ccnc2ccc(OC)cc12` [QUINIDINE] gave an inhibition at 20 min, 100 µM of 21.1%. As for `CN(C)CCOc1ccc(-c2cc(=O)c3ccccc3n2C)cc1`, the inhibition at 20 min, 100 µM in data set [2] (setting [4]) was 3.2%.

As for `Cc1ccc(S(=O)(=O)Nc2ccc3c(c2)ncn3-c2ccccc2)cc1`, the inhibition at 20 min, 100 µM in data set [2] (setting [4]) turned out to be 2.3%. For `Cc1ccc(S(=O)(=O)Nc2ccc3c(c2)nc(C)n3Cc2ccccc2)cc1`, in data set [2] (setting [4]), the inhibition at 20 min, 100 µM came to 21.7%. Same read-out and setting: under `c1ccc(CCN(Cc2ccccc2)Cc2cccc(OCc3ccccc3)c2)cc1` stands 2.2%.

The values are drawn from ChEMBL document CHEMBL2046272, “Ligand Promiscuity between the Efflux Pumps Human P-Glycoprotein and S. aureus NorA” (ACS Med Chem Lett, 2012).
